doi:10.1101/2023.08.10.552651v1 (biorxiv, 2023)

Assays:
Assay in all cases: isothermal titration calorimetry
Format in all cases: binding
Conditions in all cases: Tris-HCl, 150 mM NaCl, pH 7.9-8.0, 20 °C; 30 µM trimer; one-site model
[1] = target: ScSbtB (SbtB) (Synechocystis sp. PCC 6803, UniProt P73954, R46A)
[2] = target: ScSbtB (SbtB) (Synechocystis sp. PCC 6803, UniProt P73954, R43A)
[3] = target: ScSbtB (SbtB) (Synechocystis sp. PCC 6803, UniProt P73954, K40A)
ScSbtB (SbtB) (Synechocystis sp. PCC 6803, UniProt P73954, K40A), sequence (P73954 2-110 K40A): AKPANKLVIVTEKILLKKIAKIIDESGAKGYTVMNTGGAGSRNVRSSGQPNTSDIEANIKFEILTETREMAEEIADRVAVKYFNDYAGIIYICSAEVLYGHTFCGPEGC

ScSbtB (SbtB) (Synechocystis sp. PCC 6803, UniProt P73954, R46A), sequence (P73954 2-110 R46A): as the sequence (P73954 2-110 K40A) above, with A39K, R45A counted along it
ScSbtB (SbtB) (Synechocystis sp. PCC 6803, UniProt P73954, R43A), sequence (P73954 2-110 R43A): as the sequence (P73954 2-110 K40A) above, with A39K, R42A counted along it

| Compound | Kd [1] | Kd [2] | Kd [3] |
| --- | --- | --- | --- |
| Nc1ncnc2c1ncn2[C@@H]1O[C@H](COP(=O)(O)OP(=O)(O)O)[C@@H](O)[C@H]1O [ADP] | 435 µM | 472 µM | 877 µM |
| Nc1ncnc2c1ncn2[C@@H]1O[C@H](COP(=O)(O)O)[C@@H](O)[C@H]1O [AMP] | 94.3 µM |  |  |
| Nc1ncnc2c1ncn2[C@@H]1O[C@H](COP(=O)(O)OP(=O)(O)OP(=O)(O)O)[C@@H](O)[C@H]1O [ATP] |  | 213 µM | 357 µM |
